Data: patent US12378234B2, “Crystalline polymorphs of a 1-thiazol-2-yl-pyrazole-5-carboxylic acid derivative” (Bantam Pharmaceutical, LLC, priority 2019, dated 2025)

Tests used:
Type in all cases: physicochemical
[1] = Form stability on drying, checked by XRPD; conditions: for form stability upon drying under ambient condition (XRPD): solids isolated from slurry; for change to the polymorph during drying (XRPD): wet solids vacuum-dried at 50° C. for 2 hours
Description: Crystalline polymorph Form 1 (20 mg) was suspended in 0.2-0.9 mL of methyl tert-butyl ether (MTBE). The resulting slurry was stirred at room temperature for 4 days, after which the remaining solids were isolated and subjected to XRPD.
Crystalline polymorph Form 1 (20 mg) was suspended in 0.2-0.9 mL of tetrahydrofurane:H2O (1:9 v:v). The resulting slurry was stirred at room temperature for 4 days, after which the remaining solids were isolated and subjected to XRPD.
A solution of crystalline polymorph Form 1 (20 mg in 0.3 mL) was mixed with 0.3 mL a solution of KOH in ethyl acetate (1:1 molar ratio of KOH:Form 1), and then stirred for 2 to 5 days at room temperature. The solids were isolated and subjected to XRPD. The wet solids were also vacuum-dried at 50° C. for 2 hours, and then subjected to XRPD. […] This crystalline polymorph was also characterized by TGA, DSC, and PLM. […] Based on the results, Form 9 was considered to be a hydrate or a solvate.
X-Ray Powder Diffraction was obtained by standard techniques using Panalytical X'Pert3 Powder XRPD on a Si zero-background holder operating with a Cu Kα radiation source at 45 kV, 40 mA (Kα1 (Å): 1.540598, Kα2 (Å): 1.544426, Kα2/Kα1 intensity ratio: 0.50). The 2θ position was calibrated against Panalytical Si reference standard disc. The scanning parameters ranged from 3 to 40° 2θ (±0.0131°) and a continuous scan at a rate of about 0.04° 2θ/minute.

[2] = Solubility of crystalline polymorph in biologically relevant media (water, SGF, FaSSIF, FeSSIF), HPLC of supernatant, pH, XRPD of remaining solids; conditions: for solubility at 1 h / solubility at 4 h / solubility at 24 h: thermodynamic from solid, 37° C.; for pH: solubility test
Description: The solubility of crystalline polymorph Form 1 was tested in biologically relevant media: water, simulated gastric fluid (SGF), fasted state simulated intestinal fluid (FaSSIF) and fed state simulated intestinal fluid (FeSSIF). For example, the crystalline polymorph was suspended in the solvent with stirring at 400 rpm at 37° C. for 1 h, 4 h and 24 h followed by filtration. The supernatant concentration was measured by HPLC (Mobile phase A: 0.1% NH3 in H2O, Mobile phase B: acetonitrile; flow rate: 0.8 mL/min; injection volume: 5 μL). The remaining solids were tested by XRPD.
The solubility of crystalline polymorph Form 11 was tested in biologically relevant media: water, SGF, FaSSIF, and FeSSIF. For example, the crystalline polymorph was suspended in the solvent with stirring at 400 rpm at 37° C. for 1 h, 4 h and 24 h followed by filtration. The supernatant was measured by HPLC for concentration and the remaining solids were tested by XRPD.

[3] = Slurry conversion (competitive) experiments for thermodynamic stability relationship; conditions: for pH of solution: 2.5 mg in 1 mL of 4% dichloromethane
Description: To determine the thermodynamic stability relationship between Form 1 and Form 5, slurry conversion experiments were conducted. Specifically, Form 1 sample was added to 1.0 mL H2O:acetone (9:1 v:v) or 0.8 mL of H2O:ethanol (3:1 v:v) at room temperature. After equilibrium for 1 hr, the suspensions were filtered to obtain a saturated solution Form 1. To each saturated solution of Form 1:Form 5 (1:1) was added. After stirring at room temperature for 2 or 3 days, the solids were isolated for XRPD analysis.
To determine the thermodynamic stability relationship between Form 11 and Form 12, slurry conversion experiments were conducted. Specifically, Form 12 (2.5 mg) was added to 1.0 mL of 4% dichloromethane at room temperature. After equilibrium for 1 hour, the suspensions were filtered to obtain a saturated solution Form 12. To the saturated solution of Form 11:Form 12 (1:1) was added. After stirring at room temperature for 30 minutes, the solids were isolated for XRPD analysis. […] The pH of Form 11 solution (2.5 mg in 1 mL of 4% dichloromethane) and Form 12 solution (2.5 mg in 1 mL of 4% dichloromethane) was measured to be 8.25 and 7.98, respectively.

Molecule: Cc1nn(-c2nc(C3=CCC(C(F)(F)F)CC3)c(SC(C)C)s2)c(C(=O)O)c1-c1cccc(F)c1 (centres unmarked) [Form 2, 4-(3-fluorophenyl)-1-(5-(isopropylthio)-4-(4-(trifluoromethyl)cyclohex-1-en-1-yl)thiazol-2-yl)-3-methyl-1H-pyrazole-5-carboxylic acid]
- form stability upon drying under ambient condition (XRPD) [1]: metastable and partially converted to Form 1

Molecule: Cc1nn(-c2nc(C3=CCC(C(F)(F)F)CC3)c(SC(C)C)s2)c(C(=O)O)c1-c1cccc(F)c1 (centres unmarked) [Form 8, 4-(3-fluorophenyl)-1-(5-(isopropylthio)-4-(4-(trifluoromethyl)cyclohex-1-en-1-yl)thiazol-2-yl)-3-methyl-1H-pyrazole-5-carboxylic acid]
- form stability upon drying under ambient condition (XRPD) [1]: metastable and partially converted to Form 1

Molecule: Cc1nn(-c2nc(C3=CCC(C(F)(F)F)CC3)c(SC(C)C)s2)c(C(=O)[O-])c1-c1cccc(F)c1.[K+] (centres unmarked) [Form 9, potassium 4-(3-fluorophenyl)-1-(5-(isopropylthio)-4-(4-(trifluoromethyl)cyclohex-1-en-1-yl)thiazol-2-yl)-3-methyl-1H-pyrazole-5-carboxylate]
- change to the polymorph during drying (XRPD) [1]: no change to the polymorph was observed

Molecule: Cc1nn(-c2nc(C3=CCC(C(F)(F)F)CC3)c(SC(C)C)s2)c(C(=O)[O-])c1-c1cccc(F)c1.[K+] (centres unmarked) [Form 10, potassium 4-(3-fluorophenyl)-1-(5-(isopropylthio)-4-(4-(trifluoromethyl)cyclohex-1-en-1-yl)thiazol-2-yl)-3-methyl-1H-pyrazole-5-carboxylate]
- change to the polymorph during drying (XRPD) [1]: no change to the polymorph was observed

Molecule: Cc1nn(-c2nc(C3=CCC(C(F)(F)F)CC3)c(SC(C)C)s2)c(C(=O)[O-])c1-c1cccc(F)c1.[Na+] (centres unmarked) [Form 11, sodium 4-(3-fluorophenyl)-1-(5-(isopropylthio)-4-(4-(trifluoromethyl)cyclohex-1-en-1-yl)thiazol-2-yl)-3-methyl-1H-pyrazole-5-carboxylate]
- Form change by XRPD of remaining solids ([2]; after solubility test in FaSSIF): no form change was observed
- Form change by XRPD of remaining solids ([2]; after solubility test in FeSSIF): converted to Form 1
- Form change by XRPD of remaining solids ([2]; after solubility test in SGF): converted to Form 1
- Form change by XRPD of remaining solids ([2]; after solubility test in water): no form change was observed
- solubility at 1 h ([2]; fasted state simulated intestinal fluid (FaSSIF), FaSSIF, 1 hr): 0.1 mg/mL
- solubility at 4 h ([2]; fasted state simulated intestinal fluid (FaSSIF), FaSSIF, 4 hr): 0.1 mg/mL
- solubility at 24 h ([2]; fasted state simulated intestinal fluid (FaSSIF), FaSSIF, 24 hr): 0.2 mg/mL
- solubility at 1 h ([2]; fed state simulated intestinal fluid (FeSSIF), FeSSIF, 1 hr): 0.2 mg/mL
- solubility at 4 h ([2]; fed state simulated intestinal fluid (FeSSIF), FeSSIF, 4 hr): 0.3 mg/mL
- solubility at 24 h ([2]; fed state simulated intestinal fluid (FeSSIF), FeSSIF, 24 hr): 0.4 mg/mL
- solubility at 1 h ([2]; simulated gastric fluid (SGF), simulated gastric fluid, SGF, 1 hr): 0.04 mg/mL
- solubility at 4 h ([2]; simulated gastric fluid (SGF), simulated gastric fluid, SGF, 4 hr): 0.1 mg/mL
- solubility at 24 h ([2]; simulated gastric fluid (SGF), simulated gastric fluid, SGF, 24 hr): 0.3 mg/mL
- pH ([2]; FaSSIF, 1 hr): 6.48
- pH ([2]; FaSSIF, 4 hr): 6.45
- pH ([2]; FaSSIF, 24 hr): 6.56
- pH ([2]; FeSSIF, 1 hr): 5.19
- pH ([2]; FeSSIF, 4 hr): 5.28
- pH ([2]; FeSSIF, 24 hr): 5.32
- pH ([2]; H2O, 1 hr): 9.67
- pH ([2]; H2O, 4 hr): 9.31
- pH ([2]; H2O, 24 hr): 9.17
- pH ([2]; SGF, 1 hr): 2.12
- pH ([2]; SGF, 4 hr): 2.55
- pH ([2]; SGF, 24 hr): 6.81
- solubility at 1 h ([2]; water, H2O, 1 hr): 1.4 mg/mL
- solubility at 4 h ([2]; water, H2O, 4 hr): 1.3 mg/mL
- solubility at 24 h ([2]; water, H2O, 24 hr): 1.2 mg/mL
- pH of solution [3]: 8.25
- thermodynamic stability relationship between Form 11 and Form 12 ([3]; slurry of Form 11:Form 12 (1:1) in 4% dichloromethane, room temperature, 30 minutes): more thermodynamically stable than Form 12
- change to the polymorph during drying (XRPD) [1]: no change to the polymorph was observed

Molecule: Cc1nn(-c2nc(C3=CCC(C(F)(F)F)CC3)c(SC(C)C)s2)c(C(=O)[O-])c1-c1cccc(F)c1.[Na+] (centres unmarked) [Form 12, sodium 4-(3-fluorophenyl)-1-(5-(isopropylthio)-4-(4-(trifluoromethyl)cyclohex-1-en-1-yl)thiazol-2-yl)-3-methyl-1H-pyrazole-5-carboxylate]
- pH of solution [3]: 7.98
- change to the polymorph during drying (XRPD) [1]: no change to the polymorph was observed

Molecule: Cc1nn(-c2nc(C3=CCC(C(F)(F)F)CC3)c(SC(C)C)s2)c(C(=O)O)c1-c1cccc(F)c1.N=C(N)NCCCC(N)C(=O)O [Form 13, L-arginine 4-(3-fluorophenyl)-1-(5-(isopropylthio)-4-(4-(trifluoromethyl)cyclohex-1-en-1-yl)thiazol-2-yl)-3-methyl-1H-pyrazole-5-carboxylate]
- change to the polymorph during drying (XRPD) [1]: no change to the polymorph was observed

Molecule: Cc1nn(-c2nc(C3=CCC(C(F)(F)F)CC3)c(SC(C)C)s2)c(C(=O)O)c1-c1cccc(F)c1.NC(N)=O (centres unmarked) [Form 15, urea 4-(3-fluorophenyl)-1-(5-(isopropylthio)-4-(4-(trifluoromethyl)cyclohex-1-en-1-yl)thiazol-2-yl)-3-methyl-1H-pyrazole-5-carboxylate]
- change to the polymorph during drying (XRPD) [1]: no change to the polymorph was observed

Molecule: Cc1nn(-c2nc(C3=CCC(C(F)(F)F)CC3)c(SC(C)C)s2)c(C(=O)O)c1-c1cccc(F)c1.O=C(O)C1CCCN1 [Form 16, L-proline 4-(3-fluorophenyl)-1-(5-(isopropylthio)-4-(4-(trifluoromethyl)cyclohex-1-en-1-yl)thiazol-2-yl)-3-methyl-1H-pyrazole-5-carboxylate]
- change to the polymorph during drying (XRPD) [1]: no change to the polymorph was observed

Molecule: magnesium 4-(3-fluorophenyl)-1-(5-(isopropylthio)-4-(4-(trifluoromethyl)cyclohex-1-en-1-yl)thiazol-2-yl)-3-methyl-1H-pyrazole-5-carboxylate [Form 14]
- change to the polymorph during drying (XRPD) [1]: no change to the polymorph was observed
